Measurements as given in patent US11028061B2, “Modulators of myocyte lipid accumulation and insulin resistance and methods of use thereof” (Sanford Burnham Prebys Medical Discovery Institute, priority 2015, dated 2021).
pIC50: −log10 of the molar value.

The molecules below were run on primary murine skeletal myocytes (assay: TAG accumulation in primary murine skeletal myocytes). Conditions: Mus musculus; primary murine skeletal myocytes; read-out: Activity Score (IC50), triacylglyceride (TAG) accumulation.
Type: cell-based

Structure (SMILES)	pIC50
CNC(=O)COc1ccc(C(=O)Nc2nc(-c3ccc(OC)cc3)cs2)cc1OC [Cpd. 18, 3-methoxy-N-(4-(4-methoxyphenyl)thiazol-2-yl)-4-(2-(methylamino)-2-oxoethoxy)benzamide]	> 6.00
COc1cccc(-c2csc(NC(=O)c3cccc(OCC(=O)N4CCOCC4)c3)n2)c1 [Cpd. 96, N-(4-(3-methoxyphenyl)thiazol-2-yl)-3-(2-morpholino-2-oxoethoxy)benzamide]	5.00 to 6.00
COc1ccc(-c2csc(NC(=O)CCC(=O)N3CCOCC3)n2)cc1 [Cpd. 82, N-(4-(4-methoxyphenyl)thiazol-2-yl)-4-morpholino-4-oxobutanamide]	5.00 to 6.00
COc1ccc(-c2csc(NC(=O)c3ccc(NCC(=O)N(C)C)cc3)n2)c(Cl)c1 [compound 72, N-(4-(2-chloro-4-methoxyphenyl)thiazol-2-yl)-4-((2-(dimethylamino)-2-oxoethyl)amino)benzamide]	> 6.00

The next lines start with the values.

pIC50	Structure (SMILES)
> 6.00	CC(C)c1ccc(-c2csc(NC(=O)c3ccc(OCC(=O)N4CCOCC4)cc3)n2)cc1 [Cpd. 45, N-(4-(4-isopropylphenyl)thiazol-2-yl)-4-(2-morpholino-2-oxoethoxy)benzamide]
> 6.00	COc1ccc(-c2csc(NC(=O)c3ccc(OCC(=O)N4CCOCC4)cc3)n2)c(Cl)c1 [Cpd. 54, N-(4-(2-chloro-4-methoxyphenyl)thiazol-2-yl)-4-(2-morpholino-2-oxoethoxy)benzamide]
